Assay results reported in ChEMBL document CHEMBL1138437, “Synthesis and evaluation of novel neamine derivatives effectively targeting to RNA” (Bioorg Med Chem Lett, 2009).
In brackets after ≈: the same amount, converted by molar mass.

Tests used:
Nucleic Acid [1] = assay: Binding affinity to A site of biotinylated 16S rRNA (unknown origin) by surface plasmon resonance analysis; assay type: nucleic-acid assay
Nucleic Acid [2] = assay: Binding affinity to biotinylated HIV1 trans-activation response element RNA by surface plasmon resonance analysis; assay type: nucleic-acid assay, Human immunodeficiency virus 1
Escherichia coli = assay: Antibacterial activity against Escherichia coli ATCC 25922 after 18 hrs; assay type: functional; conditions: ATCC 25922, 18 h
Staphylococcus aureus = assay: Antibacterial activity against Staphylococcus aureus ATCC 29213 after 18 hrs; assay type: functional; conditions: ATCC 29213, 18 h
Pseudomonas aeruginosa = assay: Antibacterial activity against Pseudomonas aeruginosa ATCC 27853 after 18 hrs; assay type: functional; conditions: ATCC 27853, 18 h

| Kd (Nucleic Acid [1]) [µM] | Kd (Nucleic Acid [2]) [µM] | MIC (Escherichia coli) [µM] | MIC (Staphylococcus aureus) [µM] | MIC (Pseudomonas aeruginosa) [µM] | SMILES |
| --- | --- | --- | --- | --- | --- |
| 2 | 3 | 100 (≈ 52.1 µg/mL) | > 100 | > 100 | N=C(N)NCCC[C@H](N)C(=O)NCCN[C@H]1[C@@H](O)[C@H](N)C[C@H](N)[C@@H]1O[C@H]1O[C@H](CN)[C@@H](O)[C@H](O)[C@H]1N |
| 1 | 2 | 50 (≈ 24.6 µg/mL) | 25 (≈ 12.3 µg/mL) | > 100 | NCCCC[C@H](N)C(=O)NCCN[C@H]1[C@@H](O)[C@H](N)C[C@H](N)[C@@H]1O[C@H]1O[C@H](CN)[C@@H](O)[C@H](O)[C@H]1N |
| 7 | 14 | 100 (≈ 36.4 µg/mL) | > 100 | 50 (≈ 18.2 µg/mL) | NCCN[C@H]1[C@@H](O)[C@H](N)C[C@H](N)[C@@H]1O[C@H]1O[C@H](CN)[C@@H](O)[C@H](O)[C@H]1N |

| SMILES | Kd (Nucleic Acid [1]) [µM] | Kd (Nucleic Acid [2]) [µM] | MIC (Escherichia coli) [µM] | MIC (Staphylococcus aureus) [µM] | MIC (Pseudomonas aeruginosa) [µM] |
| --- | --- | --- | --- | --- | --- |
| NC[C@H]1O[C@H](O[C@H]2[C@H](O)[C@@H](O)[C@H](N)C[C@@H]2N)[C@H](N)[C@@H](O)[C@@H]1O [NEAMINE] | 19 | 24 | 50 (≈ 16.1 µg/mL) | 50 (≈ 16.1 µg/mL) | > 100 |
